test system: DBA/2 mice; test: Audiogenic seizure model; assay type: in vivo; conditions: Mus musculus; male and female DBA/2 mice, 30 mg/kg oral, auditory stimulation 1 hour after administration; read-out: Seizure suppression rate (%)
Description: The animal model used in this test is a phenotype model for partial seizure (including secondary generalized seizure) and generalized tonic-clonic seizure, and has high clinical predictability. This test was performed in accordance with the report of De Sarro et al (Br J Pharmacol. 1988 February; 93(2): 247-56. Anticonvulsant effects of some calcium entry blockers in DBA/2 mice. De Sarro G B, Meldrum B S, Nistico G.).
In this test example, the example compounds shown in Table 3 below were used as test compounds. The following compound (compound of Example 5 of WO 2004/009559), which is the most similar compound when the substituent position is taken into consideration, was used as a comparative example compound.
The test compounds were suspended in 5% gum arabic/distilled water (w/v), and administered by forced oral administration to male and female DBA/2 mice (Japan SLC, Inc., 3 weeks old, 8 per group) at a dose of 30 mg/kg. After one hour of the oral administration of the test compound, each mouse was placed in a transparent acrylic cylinder 30 cm high and 23 cm in diameter, and 30 seconds were allowed for habituation. Then, they were exposed to auditory stimulation (12.6 kHz, 100-110 dB) for 1 minute or until a tonic seizure occurred.
The seizure response was assessed using the following scale, 0: no seizure, 1: wild running, 2: clonic seizure, 3: tonic seizure and 4: respiratory arrest. The maximum response was recorded as the seizure severity score.
The seizure suppression rate for each compound administration group was calculated according to the following formula.

Row | Structure (SMILES) | inhibition in vivo at 30 mg/kg
1 | COc1nc(Oc2ccc(F)cc2)ncc1N1CCC(=O)NC1=O [Example 48] | 96%
2 | COc1cccc(Oc2ncc(N3CCC(=O)NC3=O)cn2)c1 [Example 21] | 93%
3 | Cc1c(F)cccc1Oc1ncc(N2CCC(=O)NC2=O)cn1 [Example 6, 1-[2-(3-Fluoro-2-methylphenoxy)pyrimidin-5-yl]-5,6-dihydropyrimidine-2,4(1H,3H)-dione] | 89%
4 | COc1nc(Oc2cc(F)cc(F)c2)ncc1N1CCC(=O)NC1=O [Example 54] | 93%
5 | O=c1ccn(-c2cnc(Oc3cccc(F)c3)nc2)c(=O)[nH]1 [Example 41] | 96%
6 | CN1C(=O)CCN(c2cnc(Oc3cccc(F)c3)nc2)C1=O [Example 5, 1-[2-(3-Fluorophenoxy)pyrimidin-5-yl]-3-methyl-5,6-dihydropyrimidine-2,4(1H,3H)-dione] | 100%
7 | O=C1CCN(c2cnc(Oc3cccc(Br)c3)nc2)C(=O)N1 [Example 44] | 85%
8 | O=C1CCN(c2cnc(Oc3ccc(F)cc3F)nc2)C(=O)N1 [Example 12] | 96%
9 | COc1nc(Oc2ccc(F)cc2F)ncc1N1CCC(=O)NC1=O [Example 53] | 83%
10 | O=C1CCN(c2cnc(Oc3cccc(Cl)c3)nc2)C(=O)N1 [Example 26] | 100%
11 | C[Si](C)(C)c1cccc(Oc2ncc(N3CCC(=O)NC3=O)cn2)c1 [Example 56] | 82%
12 | O=C1CCN(c2cnc(Oc3ccccc3F)nc2)C(=O)N1 [Example 2, 1-[2-(2-Fluorophenoxy)pyrimidin-5-yl]-5,6-dihydropyrimidine-2,4(1H,3H)-dione] | 100%
13 | COc1nc(Oc2c(F)cccc2F)ncc1N1CCC(=O)NC1=O [Example 52] | 93%
14 | O=C1CCN(c2cnc(Oc3ccc(F)c(F)c3)nc2)C(=O)N1 [Example 15] | 83%
15 | O=C1CCN(c2cnc(Oc3ccccc3)nc2)C(=O)N1 [Example 1, 1-(2-Phenoxypyrimidin-5-yl)-5,6-dihydropyrimidine-2,4(1H,3H)-dione] | 100%
16 | Cc1cc(C)cc(Oc2ncc(N3CCC(=O)NC3=O)cn2)c1 [Example 37] | 77%
17 | O=c1ccn(-c2cnc(Oc3ccccc3)nc2)c(=O)[nH]1 [Example 4, 1-(2-Phenoxypyrimidin-5-yl)pyrimidine-2,4(1H,3H)-dione] | 100%
18 | O=C1CCN(c2cnc(Sc3ccccc3)nc2)C(=O)N1 [Example 8, 1-[2-(Phenylthio)pyrimidin-5-yl]-5,6-dihydropyrimidine-2,4(1H,3H)-dione] | 100%
19 | COc1nc(Oc2cccc(F)c2)ncc1N1CCC(=O)NC1=O [Example 42] | 96%

Row | Structure (SMILES) | inhibition in vivo at 30 mg/kg
20 | O=C1CCN(c2cnc(Oc3cccc(SC(F)(F)F)c3)nc2)C(=O)N1 [Example 23] | 100%
21 | [2H]C([2H])([2H])Oc1cccc(Oc2ncc(N3CCC(=O)NC3=O)cn2)c1 [Example 25] | 89%
22 | COc1nc(Oc2ccccc2)ncc1N1CCC(=O)NC1=O [Example 18] | 100%
23 | Cc1ccc(F)cc1Oc1ncc(N2CCC(=O)NC2=O)cn1 [Example 38] | 100%
24 | O=C1CCN(c2cnc(Oc3ccc(F)cc3)nc2)C(=O)N1 [Example 11] | 97%
25 | O=C1CCN(c2cnc(-c3ccccc3)nc2)C(=O)N1 [Example 30] | 97%
26 | O=C1CCN(c2cnc(Sc3cccc(F)c3)nc2)C(=O)N1 [Example 31] | 79%
27 | CCc1cccc(Oc2ncc(N3CCC(=O)NC3=O)cn2)c1 [Example 7, 1-[2-(3-Ethylphenoxy)pyrimidin-5-yl]-5,6-dihydropyrimidine-2,4(1H,3H)-dione] | 88%
28 | C#Cc1ccc(Oc2ncc(N3CCC(=O)NC3=O)cn2)cc1 [Example 50] | 82%
29 | O=C1CCN(c2cnc(Oc3ccc(Cl)cc3)nc2)C(=O)N1 [Example 40] | 81%
30 | O=C1CCN(c2cnc(Oc3cccc(F)c3)nc2)C(=O)N1 [Example 3, 1-[2-(3-Fluorophenoxy)pyrimidin-5-yl]-5,6-dihydropyrimidine-2,4(1H,3H)-dione] | 100%
31 | C#Cc1cccc(Oc2ncc(N3CCC(=O)NC3=O)cn2)c1 [Example 28] | 100%
32 | O=C1CCN(c2ccccc2)C(=O)N1 [Comparative Example, reference compound] | 27%
33 | O=C1CCN(c2cnc(Oc3cccc(OC(F)(F)F)c3)nc2)C(=O)N1 [Example 10] | 86%
34 | O=C1CCN(c2cnc(Oc3cccc(S(F)(F)(F)(F)F)c3)nc2)C(=O)N1 [Example 24] | 90%
35 | COc1nc(Oc2ccccc2F)ncc1N1CCC(=O)NC1=O [Example 47] | 87%
36 | O=C1CCN(c2cnc(Oc3cccc(-c4ccccc4)c3)nc2)C(=O)N1 [Example 45] | 92%
37 | CC1CC(=O)NC(=O)N1c1cnc(Oc2ccccc2)nc1 (centres unmarked) [Example 16] | 100%
38 | O=C1CCN(c2cnc(Oc3cccc(C(F)(F)F)c3)nc2)C(=O)N1 [Example 9] | 94%

test system: ICR mice; test: Maximal electroshock seizure (MES) model; assay type: in vivo; conditions: Mus musculus; male ICR mice, 30 mg/kg oral, electrical stimulation (30 mA, 100 Hz, 0.2 second) 1 hour after administration; read-out: rate of seizure suppression (tonic hindlimb extension seizure)
Description: This test is performed to evaluate the anticonvulsant activity of the compound. The mouse model used in this test is a phenotype model of generalized tonic-clonic seizure and secondary generalized partial seizure. This test was performed in accordance with the report of AJ Hill et al (Br J Pharmacol. 2012 December; 167(8): 1629-42. Cannabidivarin is anticonvulsant in mouse and rat, Hill A J, et al.).
The test compound was suspended in 5% gum arabic/distilled water (w/v), and administered by forced oral administration to male ICR mice (Japan SLC, Inc., 5 to 6 weeks old, 8 per group) at a dose of 30 mg/kg. After one hour of the oral administration of the test compound, the mice were stimulated by an application of electrical current (30 mA, 100 Hz, 0.2 second) through auricular electrodes using an electroconvulsive device (UGO BASILE SRL). Then, the incidence of tonic hindlimb extension seizure was recorded. In this test, tonic hindlimb extension seizures were induced in all mice of the solvent administration group, but the rate of seizure suppression was 75% or more with the example compounds 1, 2, 3, 5, 8, 10, 12, 13, 14, 16, 18, 22, 26, 28, 30, 31, 38, 42, 47, 48 and 54, and the suppression rate was 50% or more with the example compounds 4, 6, 9, 11, 23, 41 and 45.

Row | Structure (SMILES) | responders at 30 mg/kg
39 | COc1nc(Oc2ccc(F)cc2)ncc1N1CCC(=O)NC1=O [Example 48] | ≥ 75%
40 | Cc1c(F)cccc1Oc1ncc(N2CCC(=O)NC2=O)cn1 [Example 6, 1-[2-(3-Fluoro-2-methylphenoxy)pyrimidin-5-yl]-5,6-dihydropyrimidine-2,4(1H,3H)-dione] | ≥ 50%
41 | COc1nc(Oc2cc(F)cc(F)c2)ncc1N1CCC(=O)NC1=O [Example 54] | ≥ 75%
42 | O=c1ccn(-c2cnc(Oc3cccc(F)c3)nc2)c(=O)[nH]1 [Example 41] | ≥ 50%
43 | CN1C(=O)CCN(c2cnc(Oc3cccc(F)c3)nc2)C1=O [Example 5, 1-[2-(3-Fluorophenoxy)pyrimidin-5-yl]-3-methyl-5,6-dihydropyrimidine-2,4(1H,3H)-dione] | ≥ 75%
44 | O=C1CCN(c2cnc(Oc3ccc(F)cc3F)nc2)C(=O)N1 [Example 12] | ≥ 75%
45 | O=C1CCN(c2cnc(Oc3cccc(Cl)c3)nc2)C(=O)N1 [Example 26] | ≥ 75%
46 | O=C1CCN(c2cnc(Oc3ccccc3F)nc2)C(=O)N1 [Example 2, 1-[2-(2-Fluorophenoxy)pyrimidin-5-yl]-5,6-dihydropyrimidine-2,4(1H,3H)-dione] | ≥ 75%
47 | O=C1CCN(c2cnc(Oc3ccccc3)nc2)C(=O)N1 [Example 1, 1-(2-Phenoxypyrimidin-5-yl)-5,6-dihydropyrimidine-2,4(1H,3H)-dione] | ≥ 75%
48 | O=c1ccn(-c2cnc(Oc3ccccc3)nc2)c(=O)[nH]1 [Example 4, 1-(2-Phenoxypyrimidin-5-yl)pyrimidine-2,4(1H,3H)-dione] | ≥ 50%
49 | O=C1CCN(c2cnc(Sc3ccccc3)nc2)C(=O)N1 [Example 8, 1-[2-(Phenylthio)pyrimidin-5-yl]-5,6-dihydropyrimidine-2,4(1H,3H)-dione] | ≥ 75%
50 | COc1nc(Oc2cccc(F)c2)ncc1N1CCC(=O)NC1=O [Example 42] | ≥ 75%
51 | O=C1CCN(c2cnc(Oc3cccc(SC(F)(F)F)c3)nc2)C(=O)N1 [Example 23] | ≥ 50%
52 | COc1nc(Oc2ccccc2)ncc1N1CCC(=O)NC1=O [Example 18] | ≥ 75%
53 | Cc1ccc(F)cc1Oc1ncc(N2CCC(=O)NC2=O)cn1 [Example 38] | ≥ 75%
54 | O=C1CCN(c2cnc(Oc3ccc(F)cc3)nc2)C(=O)N1 [Example 11] | ≥ 50%
55 | O=C1CCN(c2cnc(-c3ccccc3)nc2)C(=O)N1 [Example 30] | ≥ 75%
56 | O=C1CCN(c2cnc(Sc3cccc(F)c3)nc2)C(=O)N1 [Example 31] | ≥ 75%
57 | O=C1CCN(c2cnc(Oc3cccc(F)c3)nc2)C(=O)N1 [Example 3, 1-[2-(3-Fluorophenoxy)pyrimidin-5-yl]-5,6-dihydropyrimidine-2,4(1H,3H)-dione] | ≥ 75%
58 | C#Cc1cccc(Oc2ncc(N3CCC(=O)NC3=O)cn2)c1 [Example 28] | ≥ 75%
59 | O=C1CCN(c2cnc(Oc3cccc(OC(F)(F)F)c3)nc2)C(=O)N1 [Example 10] | ≥ 75%
60 | COc1nc(Oc2ccccc2F)ncc1N1CCC(=O)NC1=O [Example 47] | ≥ 75%
61 | O=C1CCN(c2cnc(Oc3cccc(-c4ccccc4)c3)nc2)C(=O)N1 [Example 45] | ≥ 50%
62 | CC1CC(=O)NC(=O)N1c1cnc(Oc2ccccc2)nc1 (centres unmarked) [Example 16] | ≥ 75%
63 | O=C1CCN(c2cnc(Oc3cccc(C(F)(F)F)c3)nc2)C(=O)N1 [Example 9] | ≥ 50%

test system: ICR mice; test: Subcutaneous pentylenetetrazole (scPTZ) model; assay type: in vivo; conditions: Mus musculus; male ICR mice, 30 mg/kg oral, 85 mg/kg pentylenetetrazole s.c. after 1 hour, evaluated for 30 minutes; read-out: rate of suppression against clonic convulsions
Description: This test is performed to evaluate the anticonvulsant activity of the compound as in Test Example 2. Unlike the phenotype of Test Example 2, the animal model used in this test is a phenotype model of generalized absence seizure and myoclonic seizure.
The test compound was suspended in 5% gum arabic/distilled water (w/v), and administered by forced oral administration to male ICR mice (Japan SLC, Inc., 5 to 6 weeks old, 10 per group) at a dose of 30 mg/kg. After 1 hour, 85 mg/kg of pentylenetetrazole dissolved in saline was administered subcutaneously, and the occurrence of clonic convulsions was evaluated for 30 minutes.

Row | Structure (SMILES) | responders at 30 mg/kg
64 | O=c1ccn(-c2cnc(Oc3cccc(F)c3)nc2)c(=O)[nH]1 [Example 41] | ≥ 50%
65 | CN1C(=O)CCN(c2cnc(Oc3cccc(F)c3)nc2)C1=O [Example 5, 1-[2-(3-Fluorophenoxy)pyrimidin-5-yl]-3-methyl-5,6-dihydropyrimidine-2,4(1H,3H)-dione] | ≥ 75%
66 | O=C1CCN(c2cnc(Oc3cccc(Br)c3)nc2)C(=O)N1 [Example 44] | ≥ 50%
67 | O=C1CCN(c2cnc(Oc3ccc(F)cc3F)nc2)C(=O)N1 [Example 12] | ≥ 50%
68 | O=C1CCN(c2cnc(Oc3cccc(Cl)c3)nc2)C(=O)N1 [Example 26] | ≥ 50%
69 | C[Si](C)(C)c1cccc(Oc2ncc(N3CCC(=O)NC3=O)cn2)c1 [Example 56] | ≥ 50%
70 | O=C1CCN(c2cnc(Oc3ccccc3F)nc2)C(=O)N1 [Example 2, 1-[2-(2-Fluorophenoxy)pyrimidin-5-yl]-5,6-dihydropyrimidine-2,4(1H,3H)-dione] | ≥ 75%
71 | O=C1CCN(c2cnc(Oc3ccccc3)nc2)C(=O)N1 [Example 1, 1-(2-Phenoxypyrimidin-5-yl)-5,6-dihydropyrimidine-2,4(1H,3H)-dione] | ≥ 75%
72 | O=c1ccn(-c2cnc(Oc3ccccc3)nc2)c(=O)[nH]1 [Example 4, 1-(2-Phenoxypyrimidin-5-yl)pyrimidine-2,4(1H,3H)-dione] | ≥ 75%
73 | COc1nc(Oc2cccc(F)c2)ncc1N1CCC(=O)NC1=O [Example 42] | ≥ 50%
74 | O=C1CCN(c2cnc(Oc3cccc(SC(F)(F)F)c3)nc2)C(=O)N1 [Example 23] | ≥ 75%
75 | O=C1CCN(c2cnc(Oc3ccc(F)cc3)nc2)C(=O)N1 [Example 11] | ≥ 75%
76 | O=C1CCN(c2cnc(Oc3cccc(F)c3)nc2)C(=O)N1 [Example 3, 1-[2-(3-Fluorophenoxy)pyrimidin-5-yl]-5,6-dihydropyrimidine-2,4(1H,3H)-dione] | ≥ 75%
77 | C#Cc1cccc(Oc2ncc(N3CCC(=O)NC3=O)cn2)c1 [Example 28] | ≥ 75%

From patent publication US10800758B2, “Pyrimidine compound” (OTSUKA PHARMACEUTICAL CO., LTD., priority 2017, dated 2020)
